From the NIST ThermoML archive (doi:10.1021/je034177v)

Test: xn = mol fraction of the nth substance listed
Settings: 101 kPa, Liquid; for speed of sound: Pulse-echo method; for mass density: Vibrating tube method

ClCCCCCCCl [1,6-dichlorohexane] + CCCCCCCCCCCC
Settings | mass density [kg/m3] | speed of sound [m/s]
278.15 K, x1 = 0.0498 | 769.76 | 1355
278.15 K, x1 = 0.1003 | 780.41 | 1353.3
278.15 K, x1 = 0.1497 | 791.41 | 1352
278.15 K, x1 = 0.2527 | 815.84 | 1350.4
278.15 K, x1 = 0.4017 | 855.12 | 1350.4
278.15 K, x1 = 0.502 | 884.56 | 1351.9
278.15 K, x1 = 0.6 | 916.3 | 1355.1
278.15 K, x1 = 0.7011 | 952.18 | 1360.1
278.15 K, x1 = 0.7986 | 990.33 | 1366.8
278.15 K, x1 = 0.8998 | 1034.17 | 1376.1
278.15 K, x1 = 0.9493 | 1057.53 | 1381.5
278.15 K, x1 = 0.9691 | 1067.22 | 1383.7
278.15 K, x1 = 1 | 1082.7 | 1387.4
283.15 K, x1 = 0.0498 | 766.11 | 1335.5
283.15 K, x1 = 0.1003 | 776.72 | 1333.9
283.15 K, x1 = 0.1497 | 787.68 | 1332.7
283.15 K, x1 = 0.2527 | 812 | 1331.2
283.15 K, x1 = 0.4017 | 851.13 | 1331.4
283.15 K, x1 = 0.502 | 880.48 | 1333.3
283.15 K, x1 = 0.6 | 912.1 | 1336.7
283.15 K, x1 = 0.7011 | 947.86 | 1342
283.15 K, x1 = 0.7986 | 985.89 | 1348.9
283.15 K, x1 = 0.8998 | 1029.59 | 1358.4
283.15 K, x1 = 0.9493 | 1052.88 | 1364
283.15 K, x1 = 0.9691 | 1062.53 | 1366.2
283.15 K, x1 = 1 | 1077.97 | 1370
288.15 K, x1 = 0.0498 | 762.46 | 1315.7
288.15 K, x1 = 0.1003 | 773.04 | 1314.3
288.15 K, x1 = 0.1497 | 783.94 | 1313.2
288.15 K, x1 = 0.2527 | 808.17 | 1311.8
288.15 K, x1 = 0.4017 | 847.16 | 1312.4
288.15 K, x1 = 0.502 | 876.39 | 1314.5
288.15 K, x1 = 0.6 | 907.89 | 1318.1
288.15 K, x1 = 0.7011 | 943.53 | 1323.6
288.15 K, x1 = 0.7986 | 981.42 | 1330.7
288.15 K, x1 = 0.8998 | 1024.98 | 1340.4
288.15 K, x1 = 0.9493 | 1048.19 | 1346.1
288.15 K, x1 = 0.9691 | 1057.82 | 1348.4
288.15 K, x1 = 1 | 1073.22 | 1352.3
293.15 K, x1 = 0.0498 | 758.82 | 1296.3
293.15 K, x1 = 0.1003 | 769.35 | 1294.9
293.15 K, x1 = 0.1497 | 780.2 | 1293.9
293.15 K, x1 = 0.2527 | 804.33 | 1292.7
293.15 K, x1 = 0.4017 | 843.16 | 1293.5
293.15 K, x1 = 0.502 | 872.29 | 1295.9
293.15 K, x1 = 0.6 | 903.68 | 1299.7
293.15 K, x1 = 0.7011 | 939.19 | 1305.4
293.15 K, x1 = 0.7986 | 976.96 | 1312.8
293.15 K, x1 = 0.8998 | 1020.39 | 1322.7
293.15 K, x1 = 0.9493 | 1043.52 | 1328.4
293.15 K, x1 = 0.9691 | 1053.11 | 1330.9
293.15 K, x1 = 1 | 1068.47 | 1334.8
298.15 K, x1 = 0.0498 | 755.16 | 1276.8
298.15 K, x1 = 0.1003 | 765.66 | 1275.5
298.15 K, x1 = 0.1497 | 776.45 | 1274.6
298.15 K, x1 = 0.2527 | 800.48 | 1273.7
298.15 K, x1 = 0.4017 | 839.16 | 1274.7
298.15 K, x1 = 0.502 | 868.18 | 1277.3
298.15 K, x1 = 0.6 | 899.46 | 1281.3
298.15 K, x1 = 0.7011 | 934.87 | 1287.3
298.15 K, x1 = 0.7986 | 972.49 | 1294.8
298.15 K, x1 = 0.8998 | 1015.8 | 1304.9
298.15 K, x1 = 0.9493 | 1038.85 | 1310.8
298.15 K, x1 = 0.9691 | 1048.42 | 1313.2
298.15 K, x1 = 1 | 1063.74 | 1317.3
303.15 K, x1 = 0.0498 | 751.5 | 1257.6
303.15 K, x1 = 0.1003 | 761.96 | 1256.4
303.15 K, x1 = 0.1497 | 772.7 | 1255.5
303.15 K, x1 = 0.2527 | 796.64 | 1254.7
303.15 K, x1 = 0.4017 | 835.16 | 1256.1
303.15 K, x1 = 0.502 | 864.08 | 1258.8
303.15 K, x1 = 0.6 | 895.24 | 1263.1
303.15 K, x1 = 0.7011 | 930.52 | 1269.2
303.15 K, x1 = 0.7986 | 968.02 | 1277
303.15 K, x1 = 0.8998 | 1011.2 | 1287.3
303.15 K, x1 = 0.9493 | 1034.18 | 1293.3
303.15 K, x1 = 0.9691 | 1043.71 | 1295.8
303.15 K, x1 = 1 | 1059 | 1299.9
308.15 K, x1 = 0.0498 | 747.81 | 1238.5
308.15 K, x1 = 0.1003 | 758.26 | 1237.4
308.15 K, x1 = 0.1497 | 768.93 | 1236.6
308.15 K, x1 = 0.2527 | 792.76 | 1236
308.15 K, x1 = 0.4017 | 831.14 | 1237.6
308.15 K, x1 = 0.502 | 859.96 | 1240.5
308.15 K, x1 = 0.6 | 891.01 | 1245
308.15 K, x1 = 0.7011 | 926.17 | 1251.3
308.15 K, x1 = 0.7986 | 963.55 | 1259.3
308.15 K, x1 = 0.8998 | 1006.61 | 1269.8
308.15 K, x1 = 0.9493 | 1029.52 | 1276
308.15 K, x1 = 0.9691 | 1039 | 1278.5
308.15 K, x1 = 1 | 1054.25 | 1282.7
313.15 K, x1 = 0.0498 | 744.13 | 1219.6
313.15 K, x1 = 0.1003 | 754.53 | 1218.5
313.15 K, x1 = 0.1497 | 765.15 | 1217.9
313.15 K, x1 = 0.2527 | 788.89 | 1217.5
313.15 K, x1 = 0.4017 | 827.13 | 1219.3
313.15 K, x1 = 0.502 | 855.84 | 1222.4
313.15 K, x1 = 0.6 | 886.78 | 1227
313.15 K, x1 = 0.7011 | 921.82 | 1233.6
313.15 K, x1 = 0.7986 | 959.07 | 1241.8
313.15 K, x1 = 0.8998 | 1002 | 1252.5
313.15 K, x1 = 0.9493 | 1024.85 | 1258.8
313.15 K, x1 = 0.9691 | 1034.3 | 1261.3
313.15 K, x1 = 1 | 1049.5 | 1265.7
318.15 K, x1 = 0.0498 | 740.46 | 1200.9
318.15 K, x1 = 0.1003 | 750.82 | 1199.9
318.15 K, x1 = 0.1497 | 761.37 | 1199.3
318.15 K, x1 = 0.2527 | 785.03 | 1199
318.15 K, x1 = 0.4017 | 823.12 | 1201.2
318.15 K, x1 = 0.502 | 851.72 | 1204.4
318.15 K, x1 = 0.6 | 882.55 | 1209.2
318.15 K, x1 = 0.7011 | 917.48 | 1216
318.15 K, x1 = 0.7986 | 954.61 | 1224.3
318.15 K, x1 = 0.8998 | 997.44 | 1235.3
318.15 K, x1 = 0.9493 | 1020.2 | 1241.7
318.15 K, x1 = 0.9691 | 1029.61 | 1244.3
318.15 K, x1 = 1 | 1044.78 | 1248.7
323.15 K, x1 = 0.0498 | 736.76 | 1182.4
323.15 K, x1 = 0.1003 | 747.09 | 1181.4
323.15 K, x1 = 0.1497 | 757.6 | 1180.9
323.15 K, x1 = 0.2527 | 781.15 | 1180.8
323.15 K, x1 = 0.4017 | 819.09 | 1183.1
323.15 K, x1 = 0.502 | 847.59 | 1186.5
323.15 K, x1 = 0.6 | 878.32 | 1191.6
323.15 K, x1 = 0.7011 | 913.12 | 1198.5
323.15 K, x1 = 0.7986 | 950.13 | 1207
323.15 K, x1 = 0.8998 | 992.83 | 1218.2
323.15 K, x1 = 0.9493 | 1015.52 | 1224.7
323.15 K, x1 = 0.9691 | 1024.9 | 1227.4
323.15 K, x1 = 1 | 1040.03 | 1231.8
328.15 K, x1 = 0.0498 | 733.07 | 1163.9
328.15 K, x1 = 0.1003 | 743.36 | 1163
328.15 K, x1 = 0.1497 | 753.83 | 1162.6
328.15 K, x1 = 0.2527 | 777.28 | 1162.6
328.15 K, x1 = 0.4017 | 815.09 | 1165.2
328.15 K, x1 = 0.502 | 843.49 | 1168.8
328.15 K, x1 = 0.6 | 874.11 | 1174
328.15 K, x1 = 0.7011 | 908.81 | 1181.1
328.15 K, x1 = 0.7986 | 945.71 | 1189.9
328.15 K, x1 = 0.8998 | 988.3 | 1201.2
328.15 K, x1 = 0.9493 | 1010.92 | 1207.8
328.15 K, x1 = 0.9691 | 1020.27 | 1210.5
328.15 K, x1 = 1 | 1035.37 | 1215.1
